{"source": "patent US20130267494A1", "about": "“1,4-OXAZEPANE DERIVATIVES” (priority 2010, published 2013)", "tested_on": "SD female rats", "assay": "Measurement of urethral resistance increasing effect (leak point pressure, intravenous administration)", "type": "in vivo, rat", "conditions": "for urethral resistance increasing effect (cmH2O): SD female rats", "experimental": "The urethral resistance increasing effect in rat was measured by a modified method of Matsumoto et al. (WO2009/063992) as follows. That is, SD female rats (CLEA Japan, Inc.) were anesthetized with isoflurane (1.0%; Abbott), and the spinal cord was transected at Th8-9 to avoid the voiding reflex. After laparotomy, an intravesical pressure measurement catheter and a saline infusion catheter (PE-100; Clay Adams) were inserted into the bladder. Thereafter, the abdomen of the rat was closed with aronalpha A “Sankyo” (Daiichi Sankyo). The rat with an inserted catheter was placed in a Bollman cage (KN-326 Bollman cage TYPE III; Natsume). The intravesical pressure measurement catheter was connected to a computer via a pressure transducer (REF685640; Nihon Koden), an amplifier (RPM-6008M; Nihon Koden), and a multi-channel data analyzer (MP150; Biopack), and changes in the intravesical pressure were recorded on a hard disc at a frequency of 100 samples/sec. The saline infusion catheter was connected to a 50 mL syringe (Terumo) filled with saline colored with Evans Blue (Wako). The saline was infused into the bladder from the 50 mL syringe filled with saline at a rate of 0.1 mL/sec by using an infusion pump (Kds100; KD Scientific). When the saline leaked from the urethral orifice, infusion was discontinued, and the saline in the bladder was released. The maximum pressure observed during infusion of saline into the bladder and leakage thereof was taken as an LPP (Leak point pressure) value. The measurement was repeated until the LPP value was stabilized, and an average of continuous three stable LPP values was taken as the result. […] The LPP value (Pre value) was measured, a drug was intravenously administered, and the measurement of LPP value (Post value) was again started 10 min after administration. […]\nThe compound of Example 6 (0.3 mg/kg), the compound of Example 6 (1.0 mg/kg) and the vehicle were administered to the rats, and the urethral resistance increasing effect was measured by the aforementioned method.", "note": "Structures can show the parent of a compound that is named as a salt."}
{"smiles": "CC(=O)NC[C@H]1CNCCO[C@@H]1c1ccc(Cl)c(Cl)c1", "note": "(racemic) [Example 6, N-{[(6RS,7SR)-7-(3,4-dichlorophenyl)-1,4-oxazepan-6-yl]methyl}acetamide monohydrochloride]", "values": [{"measurement": "urethral resistance increasing effect (cmH2O)", "setting": "dose 0.3 mg/kg", "value": "12.8 ± 1.1", "unit": "cmH2O"}, {"measurement": "urethral resistance increasing effect (cmH2O)", "setting": "dose 1.0 mg/kg", "value": "19.1 ± 1.8", "unit": "cmH2O"}, {"measurement": "urethral resistance increasing effect (LPP Post value minus Pre value) compared to vehicle", "setting": "spinal cord-transected SD female rats, intravenous 0.3 and 1.0 mg/kg, LPP measured from 10 min after administration, Williams' test", "value": "dose-dependent and significant urethral resistance increasing effect"}]}
